The test system of one data set is A549. In words: Cytotoxicity against human A549 cells assessed as inhibition of cell growth measured after 24 hrs by MTT assay. It is filed as toxicity, cell-based. The settings on record: a549, 24 h. A general note: Formazan colour is commonly taken as a measure of viable cells.
Data set [1] has as its system SARS-CoV-2. In words: Antiviral activity against SARS-CoV-2 WIV04 infected in African green monkey Vero cells assessed as log reduction in viral RNA at 10 uM measured at 24 hrs post infection by qRT-PCR analysis. Type of data set: functional, Severe acute respiratory syndrome coronavirus 2. On the technique in general: Real-time PCR tracks product formation cycle by cycle.

Data set [2] addresses Replicase polyprotein 1ab (Severe acute respiratory syndrome coronavirus 2, UniProt P0DTD1). In words: Inhibition of SARS-CoV-2 3CL protease expressed in Escherichia coli BL21 (DE3) cells assessed as change in relative fluorescence unit using MCA-TSAVLQSGFRK(DNP)M as substrate preincubated for 30 mins followed by substrate addition and measured after 2 hrs by microplate reader based FRET assay.

The test system of data set [3] is SARS-CoV-2. In words: Antiviral activity against SARS-CoV-2 WIV04 infected in African green monkey Vero cells assessed as inhibition of viral proliferation measured at 24 hrs post infection by qRT-PCR analysis. The settings on record: Severe acute respiratory syndrome coronavirus 2, WIV04, Vero. Type of data set: functional, organism-based.
A further data set has as its system Vero. In words: Cytotoxicity against African green monkey Vero cells assessed as reduction in cell viability incubated for 48 hrs by CCK8 assay. The settings on record: chlorocebus sabaeus. Type of data set: toxicity, cell-based.

pEC50, pIC50: −log10 of the molar value.

For the compound `CCCC[C@H](NC(=O)/C=C/c1ccccc1)C(=O)N[C@H](C=O)C[C@@H]1CCNC1=O`, the Activity result in the data set on A549 and in the data set with Vero was “Non-Toxic” in each case. For the same compound, the “log(activity)” value in the data set on SARS-CoV-2 [1] turned out to be 2. Also, the pIC50 (as a rule, the negative decadic logarithm of the IC50, by convention in mol/L) in data set [2] was 6.43. In addition, in the data set on SARS-CoV-2 [3], the negative logarithm of the EC50 (pEC50) (usually −log10 of the EC50, conventionally taken in molar units) is 5.95.
As to `CC(C)C[C@H](NC(=O)/C=C/c1ccccc1)C(=O)N[C@H](C=O)C[C@@H]1CCNC1=O`, the Activity result in the data set with A549 and in the data set on Vero was “Non-Toxic” in each case. Further, the “log(activity)” value with SARS-CoV-2 [1] turned out to be 2. Also, in data set [2], the negative logarithm of the IC50 (pIC50) was 6.43. Also, in the data set on SARS-CoV-2 [3], the pEC50 is 5.97.
As to `CC(C)C[C@H](NC(=O)/C=C/c1ccccc1)C(=O)N[C@H](C=O)C[C@@H]1CCCNC1=O`, the Activity entry in the data set with A549 and in the data set on Vero was “Non-Toxic” in each case. Besides, the “log(activity)” value in the data set on SARS-CoV-2 [1] worked out at 2. In data set [2], the pIC50 was 6.49. Also, in the data set with SARS-CoV-2 [3], the pEC50 was 5.82.
With `CC(C)C[C@H](NC(=O)[C@@H](NC(=O)c1ccc2ccccc2c1)C(C)C)C(=O)N[C@H](C=O)C[C@@H]1CCCNC1=O`, the Activity result in the data set on A549 and in the data set with Vero was “Non-Toxic” in each case. Further, the “log(activity)” value in the data set with SARS-CoV-2 [1] was 2. In addition, in data set [2], the pIC50 was 6.57. Further, the pEC50 in the data set with SARS-CoV-2 [3] is 5.87.

The record behind these values is ChEMBL document CHEMBL5137031, “The structure-based design of peptidomimetic inhibitors against SARS-CoV-2 3C like protease as Potent anti-viral drug candidate” (Eur J Med Chem, 2022).
